Reference: the supplement of paper PMC11208160

Assay: recombinant barcode read abundance after kanamycin selection (control-corrected) (log10(CPM+1)); higher = more efficient recombination; sequences stand for … in AGTGCAGAGAAAATCGGCCAGTTTTCTCTGCCTGCAGTCCGCATGCCGT…AGATTTATGCAGCGGACTGCCTTTCTCCCAAAGTGATAAACCGGACAGTATCATGGACCGGTTTTCCCGGTAATCCGTATTTGCAAGGTTGGTTTCACT; site = the 11-nt target
Outline: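 Recombination efficiency draws on barcodes counted at recombinant junctions in a pooled E. coli screen of targets paired with IS621 bridge RNA target-binding loops. The counts were converted to counts per million, averaged and corrected against the chloramphenicol/ampicillin LB agar control, then reported as log10(CPM+1). Selection plates held chloramphenicol/ampicillin/kanamycin with 0.1 mM IPTG, with two replicates per condition.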
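Note: IS621 recombinase and bridge RNA in Escherichia coli cells.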

| Sequence | recombinant barcode read abundance (log10) |
| --- | --- |
| TAGCTCCCTTGGGTTCTAACCTGTTGCCG (site TAGCTCCCTGG) | 0.238 |
| TAGCTCCCTTGGGTTCTAACCTGTTGCCG (site TAGCTCCCTTG) | 0.379 |
| TAGCTCCCTTGGGTTCTAACCTGTTGCCT (site TAGCTCCCTAG) | 1.21 |
| TAGCTCCCTTGGGTTCTAACCTGTTGCCT (site TAGCTCCCTCG) | 0.0637 |
| TAGCTCCCTTGGGTTCTAACCTGTTGCCT (site TAGCTCCCTGG) | 0.105 |
| TAGCTCCCTTGGGTTCTAACCTGTTGCCT (site TAGCTCCCTTG) | 0.016 |
| TAGCTGACTTGGGTTCTAACCTGTTGCCT (site TAGCAGACTAG) | 1.14 |
| TAGCTGACTTGGGTTCTAACCTGTTGCCT (site TAGCCGACTAG) | 0.624 |
| TAGCTGACTTGGGTTCTAACCTGTTGCCT (site TAGCGGACTAG) | 0.194 |
| TAGCTGACTTGGGTTCTAACCTGTTGCCT (site TAGCTGACTAG) | 1.28 |
| TAGGAACCTTGGGTTCTAACCTGTTGCGT (site GAGGAGCCTAC) | 0.022 |
| TAGGAACCTTGGGTTCTAACCTGTTGCGT (site TAGGAACCTAC) | 3.35 |
| TAGGAAGCTTGGGTTCTAACCTGTTGCGA (site TAGAAAGCTTG) | 0.108 |
| TAGGAAGCTTGGGTTCTAACCTGTTGCGA (site TAGGAAGCTTC) | 2.34 |
| TAGGACTCTTGGGTTCTAACCTGTTGCAT (site CCTCGTCCTGG) | 0.0204 |
| TAGGACTCTTGGGTTCTAACCTGTTGCAT (site TAGGACTCTAT) | 1.79 |
| TAGGAGACTTGGGTTCTAACCTGTTGCCC (site CAGGAGACTAG) | 0.0355 |
| TAGGAGACTTGGGTTCTAACCTGTTGCCC (site TAGGAGACTGG) | 1.99 |
| TAGGAGACTTGGGTTCTAACCTGTTGCGT (site TAGGAAACTAC) | 1.42 |
| TAGGAGACTTGGGTTCTAACCTGTTGCGT (site TAGGACACTAC) | 0.642 |
| TAGGAGACTTGGGTTCTAACCTGTTGCGT (site TAGGAGACTAC) | 2.56 |
| TAGGAGACTTGGGTTCTAACCTGTTGCGT (site TAGGATACTAC) | 0.233 |

| Sequence | recombinant barcode read abundance (log10) |
| --- | --- |
| TAGGAGCCTTGGGTTCTAACCTGTTGCGT (site TACGAACCTAC) | 0.323 |
| TAGGAGCCTTGGGTTCTAACCTGTTGCGT (site TAGGAGCCTAC) | 3.27 |
| TAGGCCACTTGGGTTCTAACCTGTTGCCT (site TAGGCCACTAA) | 0.0204 |
| TAGGCCACTTGGGTTCTAACCTGTTGCCT (site TAGGCCACTAC) | 0.122 |
| TAGGCCACTTGGGTTCTAACCTGTTGCCT (site TAGGCCACTAG) | 0.592 |
| TAGGCCACTTGGGTTCTAACCTGTTGCCT (site TAGGCCACTAT) | 0 |
| TAGGCGCCTTGGGTTCTAACCTGTTGCAT (site TAGGCGCCTAA) | 4.17 |
| TAGGCGCCTTGGGTTCTAACCTGTTGCAT (site TAGGCGCCTAC) | 0.723 |
| TAGGCGCCTTGGGTTCTAACCTGTTGCAT (site TAGGCGCCTAG) | 0.0713 |
| TAGGCGCCTTGGGTTCTAACCTGTTGCAT (site TAGGCGCCTAT) | 0.299 |
| TAGGCGCCTTGGGTTCTAACCTGTTGCGT (site TAGGCGCCTAA) | 0.0787 |
| TAGGCGCCTTGGGTTCTAACCTGTTGCGT (site TAGGCGCCTAC) | 0.735 |
| TAGGCGCCTTGGGTTCTAACCTGTTGCGT (site TAGGCGCCTAG) | 0.0904 |
| TAGGCGCCTTGGGTTCTAACCTGTTGCGT (site TAGGCGCCTAT) | 0.249 |
| TAGGCGGCTTGGGTTCTAACCTGTTGCGT (site AGCTGTCCTCT) | 0.0593 |
| TAGGCGGCTTGGGTTCTAACCTGTTGCGT (site TAGGCGGCTAC) | 2.63 |
| TAGGCTCCTTGGGTTCTAACCTGTTGCAA (site TAGGCTCCTAT) | 0.309 |
| TAGGCTCCTTGGGTTCTAACCTGTTGCAA (site TAGGCTCCTCT) | 0.0906 |
| TAGGCTCCTTGGGTTCTAACCTGTTGCAA (site TAGGCTCCTGT) | 0 |
| TAGGCTCCTTGGGTTCTAACCTGTTGCAA (site TAGGCTCCTTT) | 1.41 |
| TAGGCTCCTTGGGTTCTAACCTGTTGCCG (site TAGCCTACTCG) | 0.00951 |
